In patent US7045283B2, “Methods of high-throughput screening for internalizing antibodies” (The Regents of the University of California, priority 2000, dated 2006):
Values after ≈ are worked out from the molar mass of the structure shown.

How the values were obtained:
[1] = Methotrexate encapsulation by reverse phase evaporation (direct sequestration) and leakage; type: physicochemical
in vitro = details: BEND-3 endothelial cells expressing VEGF receptor
Method: Bovine endothelial cells (BEND-3) expressing vascular endothelial growth factor (VEGF) receptor were incubated (37° C., 6 hours) in the growth medium containing 0.03–90 microgram/mL of the free (i.e. non-encapsulated) vinorelbine, or vinorelbine encapsulated in the Ni-NTA-PEG-DSPE liposomes with or without 0.02 mg/niL of the intemalizing anti-VEGER scFv antibody 4G7 having a hexahistidine tag and a terminal cysteine group. The cells were post-incubated in the growth medium without the drug for another 72 hours, and the viability of the cells was determined by a conventional tetrasolium (MTT) assay.

| SMILES | MTX loading efficiency [1] | IC50 at 6 h (in vitro) [µg/mL] |
| --- | --- | --- |
| CN(Cc1cnc2nc(N)nc(N)c2n1)c1ccc(C(=O)N[C@@H](CCC(=O)O)C(=O)O)cc1 [free methotrexate, methotrexate] | 28.7–29.5% | > 90 |
| CCC1=C[C@@H]2CN(C1)Cc1c([nH]c3ccccc13)[C@@](C(=O)OC)(c1cc3c(cc1OC)N(C)[C@H]1[C@@](O)(C(=O)OC)[C@H](OC(C)=O)[C@]4(CC)C=CCN5CC[C@]31[C@@H]54)C2 [free vinorelbine, vinorelbine] | – | 0.67 (≈ 0.86 µM) |
